Laboratory results: BindingDB's records for doi:10.1021/jm101238d (University of Salerno, 2011)
pIC50: −log10 of the molar value.

Molecular target: Prostaglandin E synthase, mPGES-1 (Homo sapiens) (UniProt O14684)
Assay: Inhibition of Prostaglandin E2 synthase-1 in IL1-beta stimulated microsomal fraction of human A549 cell assessed as PGE2 level by RP-HPLC

Prostaglandin E synthase, mPGES-1 (Homo sapiens), sequence (O14684 whole entry, looked up): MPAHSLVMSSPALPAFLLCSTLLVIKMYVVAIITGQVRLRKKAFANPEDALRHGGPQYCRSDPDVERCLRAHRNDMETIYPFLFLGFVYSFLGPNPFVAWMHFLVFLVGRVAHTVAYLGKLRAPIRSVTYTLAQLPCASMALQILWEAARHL

Structure (SMILES)	pIC50
c1ccc(CCCn2cc(-c3ccc(-c4cc5ccccc5c5ccccc45)cc3)nn2)cc1 [4-(4-Phenanthren-9-yl-phenyl)-1-(3-phenyl-propyl)-1H-[1,2,3]triazole]	< 4.52
O=C(O)c1ccc(Cn2cc(-c3ccc(-c4ccccc4)cc3)nn2)c([N+](=O)[O-])c1 [4-(4-Biphenyl-4-yl-[1,2,3]triazol-1-ylmethyl)-3-nitro-benzoic acid]	5.49
O=C(O)c1ccc(S(=O)(=O)n2cc(-c3ccc(-c4ccccc4COc4cccc5ccccc45)cc3)nn2)cc1 [4-{4-[2'-(Naphthalen-1-yloxymethyl)-biphenyl-4-yl]-1,2,3]triazole-1-sulfonyl}-benzoic acid]	< 4.52
c1ccc(CCCn2cc(-c3ccc(-c4ccccc4COc4cccc5ccccc45)cc3)nn2)cc1 [4-[2'-(Naphthalen-1-yloxymethyl)-biphenyl-4-yl]-1-(3-phenyl-propyl)-1H-[1,2,3]triazole]	< 4.52
Oc1cccc(-c2ccc(-c3cn(CSc4ccccc4)nn3)cc2)c1 [4'-(1-Phenylsulfanylmethyl-1H-[1,2,3]triazol-4-yl)-biphenyl-3-ol]	< 4.52
FC(F)(F)c1ccc(Cl)c(OCc2ccccc2-c2ccc(-c3cn(CCCc4ccccc4)nn3)cc2)c1 [4-[2'-(2-Chloro-5-trifluoromethyl-phenoxymethyl)-biphenyl-4-yl]-1-(3-phenyl-propyl)-1H-[1,2,3]triazole]	< 4.52
Oc1ccc(-c2ccc(-c3cn(CCCc4ccccc4)nn3)cc2)cc1 [4'-[1-(3-Phenyl-propyl)-1H-[1,2,3]triazol-4-yl]-biphenyl-4-ol]	< 4.52
CN(C)c1cccc2c(S(=O)(=O)Nc3ccc(-c4ccc(-c5cn(CCCc6ccccc6)nn5)cc4)cc3)cccc12 [5-Dimethylamino-naphthalene-1-sulfonic acid{4'-[1-(3-phenyl-propyl)-1H-[1,2,3]triazol-4-yl]-biphenyl-4-yl}-amide]	< 4.52
Cc1ccccc1CCn1cc(-c2ccc(-c3ccccc3COc3cccc4ccccc34)cc2)nn1 [4-[2'-(Naphthalen-1-yloxymethyl)-biphenyl-4-yl]-1-(2-o-tolyl-ethyl)-1H-[1,2,3]triazole]	< 4.52
c1ccc(CCCn2cc(-c3ccc(-c4ccc(Oc5ccccc5)cc4)cc3)nn2)cc1 [4-(4'-Phenoxy-biphenyl-4-yl)-1-(3-phenyl-propyl)-1H-[1,2,3]triazole]	< 4.52
Oc1ccc(-c2ccc(-c3cn(CSc4ccccc4)nn3)cc2)cc1 [4'-(1-Phenylsulfanylmethyl-1H-[1,2,3]triazol-4-yl)-biphenyl-4-ol]	< 4.52
O=C(OCc1cn(CSc2ccccc2)nn1)c1ccccc1 [Benzoic acid 1-Phenylsulfanylmethyl-1H-[1,2,3]Triazol-4-ylmethyl Ester]	< 4.52
Cc1ccccc1CCn1cc(-c2ccc(-c3ccc(N)cc3)cc2)nn1 [4'-[1-(2-o-Tolyl-ethyl)-1H-[1,2,3]triazol-4-yl]-biphenyl-4-ylamine]	< 4.52
O=Cc1ccc(-c2c(Cc3ccccc3)nnn2CSc2ccccc2)cc1 [4-(5-Benzyl-3-phenylsulfanylmethyl-3H-[1,2,3]triazol-4-yl)-benzaldehyde]	< 4.52
Cc1ccccc1CCn1cc(-c2ccc(-c3ccccc3COc3cc(C(F)(F)F)ccc3Cl)cc2)nn1 [4-[2'-(2-Chloro-5-trifluoromethyl-phenoxymethyl)-biphenyl-4-yl]-1-(2-o-tolyl-ethyl)-1H-[1,2,3]triazole]	< 4.52
